Results reported in PubChem BioAssay AID1645862 (Buhrlage Lab, Dana-Farber Cancer Institute and Novartis …, 2021).
Active and inactive are the calls of the source. The rule behind the calls is not given here.

Target: Ubiquitin carboxyl-terminal hydrolase 8 (Homo sapiens) (UniProt P40818)
Experiment: Ubiquitin-specific protease 8 inhibitors, concentration-effect, biochemical, validation of initial actives (AID 1645862);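 note: potency reflects inhibition of USP8 cleavage of a ubiquitin rhodamine substrate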
Settings: recombinant USP8 deubiquitinase activity assay

Chain of Ubiquitin carboxyl-terminal hydrolase 8 (Homo sapiens) (P40818 whole entry, looked up): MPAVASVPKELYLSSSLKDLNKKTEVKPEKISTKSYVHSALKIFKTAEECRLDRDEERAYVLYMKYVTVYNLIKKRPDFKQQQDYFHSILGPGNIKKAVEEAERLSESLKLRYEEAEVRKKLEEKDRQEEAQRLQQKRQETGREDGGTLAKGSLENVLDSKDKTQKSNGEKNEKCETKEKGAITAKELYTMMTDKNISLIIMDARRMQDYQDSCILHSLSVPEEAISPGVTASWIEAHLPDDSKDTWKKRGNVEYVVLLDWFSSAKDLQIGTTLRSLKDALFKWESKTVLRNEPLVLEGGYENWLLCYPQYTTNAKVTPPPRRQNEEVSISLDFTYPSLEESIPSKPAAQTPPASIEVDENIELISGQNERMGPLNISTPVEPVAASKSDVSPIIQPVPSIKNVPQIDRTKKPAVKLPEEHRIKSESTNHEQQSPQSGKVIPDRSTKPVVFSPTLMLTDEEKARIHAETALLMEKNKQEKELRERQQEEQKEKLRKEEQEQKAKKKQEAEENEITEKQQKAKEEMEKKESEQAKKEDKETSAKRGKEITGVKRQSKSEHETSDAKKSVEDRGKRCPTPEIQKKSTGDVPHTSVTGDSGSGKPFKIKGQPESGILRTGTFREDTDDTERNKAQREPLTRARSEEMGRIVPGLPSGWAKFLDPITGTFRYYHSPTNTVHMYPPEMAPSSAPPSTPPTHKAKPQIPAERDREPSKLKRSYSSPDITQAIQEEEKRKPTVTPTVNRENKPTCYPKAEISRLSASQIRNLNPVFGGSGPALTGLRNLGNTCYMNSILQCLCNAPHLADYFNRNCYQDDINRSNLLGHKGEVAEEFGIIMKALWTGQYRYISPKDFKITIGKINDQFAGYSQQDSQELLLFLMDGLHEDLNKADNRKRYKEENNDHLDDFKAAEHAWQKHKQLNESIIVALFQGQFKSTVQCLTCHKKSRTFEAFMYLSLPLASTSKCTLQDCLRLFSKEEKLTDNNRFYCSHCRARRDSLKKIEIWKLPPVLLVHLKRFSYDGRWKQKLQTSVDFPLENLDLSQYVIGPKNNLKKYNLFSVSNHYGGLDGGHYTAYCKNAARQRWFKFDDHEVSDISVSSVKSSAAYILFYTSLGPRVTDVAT

IC50	Structure (SMILES)
> 40 µM (inactive)	Cc1nnc(-c2ccc3ccn(CC(=O)N4CCN(c5ccccc5)CC4)c3c2)o1
> 40 µM (inactive)	O=C(CN1C(=O)c2cccc3cccc1c23)NCCSCc1ccc(Cl)c(Cl)c1
> 40 µM (inactive)	COC(=O)c1ccccc1NC(=O)C1CCCN(c2nnc(-n3cccc3)s2)C1 (centres undefined)
> 40 µM (inactive)	O=C(CN(CC(=O)NCc1ccccc1Cl)c1nc2ccccc2s1)NCc1ccccc1Cl
> 40 µM (inactive)	Cc1cccc(C)c1NC(=O)COc1ccccc1-c1nnc(-c2ccccc2)o1
31.3 µM	COc1ccc(-c2c(NC(=O)C3COc4ccccc4O3)n[nH]c2C)cc1OC (centres undefined)
> 40 µM (inactive)	COc1ccc(C2(c3nnc(C(C)Oc4ccc(F)cc4)o3)CCOCC2)cc1 (centres undefined)
> 40 µM (inactive)	Cc1ccc(-c2cc(=O)n(CC(=O)Nc3ccc(C(C)C)cc3)cn2)cc1
22.4 µM	O=C(Nc1ccccc1F)c1nc(-c2cn(-c3ccc(F)cc3)nn2)no1
> 40 µM (inactive)	COc1ccccc1NC(=O)C1=C(C)Nc2nc(SCc3ccccc3F)nn2C1c1ccccn1 (centres undefined)
> 40 µM (inactive)	Cc1cccc(N2C(=O)/C(=C\c3cc(C#N)n(C)c3C)c3ccccc3C2=O)c1
38.4 µM	Cn1nc(C(=O)N2CCC(c3ccccc3)C2)c2c1-c1ccsc1CC2 (centres undefined)
> 40 µM (inactive)	Cc1ccc(Nc2nc(NCC(=O)Nc3cc(C)ccc3C)nc(Nc3ccc(C)cc3)n2)cc1
> 40 µM (inactive)	CCc1ccc(NC(=O)c2cc(C(F)(F)F)n(C)n2)cc1
> 40 µM (inactive)	COc1ccc(NC(=O)Cn2c(=O)n(Cc3ccco3)c(=O)c3ccc(C(=O)NC4CCCC4)cc32)cc1
> 40 µM (inactive)	Cn1c(COc2cccc3cccnc23)nnc1SCC(=O)c1ccc(Cl)cc1Cl
> 40 µM (inactive)	Cc1c(C(=O)Nc2ccc(Oc3ccccc3)cc2)nnn1-c1cccc(Cl)c1

IC50	Structure (SMILES)
> 40 µM (inactive)	CSc1nc(N)c2c(n1)N[C@H]1OC[C@H](O)[C@H](O)[C@H]1N2
> 40 µM (inactive)	Cn1c(SCC(=O)c2ccc(F)cc2)nnc1-c1cc2ccccc2o1
> 40 µM (inactive)	Cc1cc(C(=O)CSc2nc3ccccc3[nH]2)c(C)n1Cc1ccco1
> 40 µM (inactive)	Cc1ccc(Cn2nnc3c(=O)[nH]c(C4CCN(S(=O)(=O)c5ccc(S(=O)(=O)NC6CCCC6)cc5)CC4)nc32)cc1
6.23 µM	CCCCCCCCCc1cc(OC(=O)c2c(CCCCCCCCC)cc(O)cc2O[C@@H]2O[C@H](CO)[C@@H](O)[C@H](O)[C@H]2O)cc(O)c1C(=O)O
> 40 µM (inactive)	CC(=O)CSc1nc2sc3c(c2c(=O)n1-c1ccccc1)CCCC3
> 40 µM (inactive)	O=C(Nc1cccc(-c2nc3ncccc3o2)c1)c1ccc([N+](=O)[O-])cc1
> 40 µM (inactive)	COc1cc(NC(=O)Cn2nc(-c3ccc(F)cc3)ccc2=O)ccc1-n1cnnn1
> 40 µM (inactive)	COc1cccc(C(=O)Cn2c(=O)n(CCCC(=O)NCc3ccco3)c(=O)c3ccc(Cl)cc32)c1
> 40 µM (inactive)	COc1ccc(-c2nc(-c3cn(-c4ccccc4)nn3)no2)c(OC)c1
> 40 µM (inactive)	O=C(Cc1ccc(-n2c(=O)c3ccccc3n(CC(=O)Nc3ccc(Cl)cc3Cl)c2=O)cc1)NCc1ccco1
> 40 µM (inactive)	Cc1ccc(C(=O)c2cn(CC(=O)Nc3ccccc3)c3ccc(C)cc3c2=O)cc1
> 40 µM (inactive)	CCOC(=O)N1CCC(NC(=O)c2cc(C(=O)Nc3ccc(S(=O)(=O)N4CCCCC4)cc3)ccc2CO)CC1
> 40 µM (inactive)	COC(=O)c1ccc2c(=O)n(CCCCCC(=O)NCCc3ccccc3Cl)c(=O)[nH]c2c1
> 40 µM (inactive)	CCCc1ccc(C(=O)[C@@H]2[C@@H](C(=O)c3cccs3)N3c4ccc(C)cc4C(C)=C[C@@H]3[C@@]23C(=O)Nc2ccccc23)cc1
> 40 µM (inactive)	CCCn1c(=O)c2sccc2n2c(CCC(=O)N3CCc4ccccc4C3)nnc12

Structure (SMILES)	IC50
O=c1c2ccccc2nc(CSc2cccc(Cl)c2Cl)n1-c1ccccc1	> 40 µM (inactive)
